Laboratory results taken from patent US20230348538A1, “METHOD FOR TREATMENT OF DRY EYE COMPRISNG APPLYING P55PIK INHIBITOR” (Wuhan Yicheng Biological Technology Co., Ltd., priority 2020, published 2023).
“Also recorded” adds a separate entry of the source.

How the values were obtained:
[1] = system: rat model of dry eye caused by low tear secretion; experiment: Rat model of dry eye caused by low tear secretion (atropine): lacrimal secretion test (Schirmer's test II); format: in vivo, SD rats
Procedure: 1.2.2 Modeling: a rat model of dry eye caused by low tear secretion, was established using the Burgalassi method of atropine injection into the lacrimal glands; eighteen laboratory rats, with equal numbers of male and female, were given 0.4% oxybucaine hydrochloride eye drops in both eyes and injected with 0.25 mL of 0.5 mg/mL atropine into the lacrimal glands four times a day for both eyes; the results of lacrimal secretion test were recorded 0.5 hours after the atropine injection every day; and the atropine injection was continued until the 7th day.
Grouping and administration: six laboratory rats, with equal numbers of male and female, were used as the normal control group and were not modeled; the eighteen successfully modeled laboratory rats were randomly divided into three model groups, with 6 rats in each model group, half male and half female; Model group 1 was the blank control group and received no treatment; Model group 2 was the solvent control group and treated with solvent eye drops that contained a solvent but no TAT-N16 peptide; Model group 3 was the drug treatment group and was treated with eye drops comprising 0.1% TAT-N16 peptide; the eye drops was administered four times a day (1 drop/time) for 7 days; the amount of the lacrimal secretion of each eye was recorded on days 0, 4 and 7 after treatment; the expression levels of P55PIK gene and p55PIK protein in the rat eyes of the normal control group and the model groups were detected.
1.2.2.1 Lacrimal secretion test (Schirmer's test II): due to the smaller eyeballs of SD rats compared to human, the Schirmer tear test strips designed for human use were not suitable for use in the SD rats; therefore, the Schirmer's test II was conducted by cutting a 5 mm x 35 mm Schirmer tear test strip into two strips of 2.5 mm×35 mm each, folding the front end, and lightly placing the Schirmer tear test strip at the junction of the posterior-middle ⅓ of the lower eyelid; after 5 minutes, the Schirmer tear test strips were removed; and the length of the Schirmer tear test strips wetted by tears were measured for 2 minutes and the measurement was repeated three times to obtain an average value; the results were recorded before the treatment, and on the 4th and 7th day after treatment.

[2] = system: dry eye model induced by 0.2% benzalkonium chloride solution; experiment: Benzalkonium chloride dry eye model: tear film break-up time (BUT); format: in vivo, C57BL/6 mice
Procedure: The healthy male C57BL/6 mice were kept in a controlled environment with a temperature of (25±1)° C., a relative humidity of (25±5)%, and light-dark cycles (9 AM-9 PM) with simulated dawn and dusk. Forty mice (80 eyes) were treated with 5 μL of 0.2% benzalkonium chloride solution twice a day (8:00 AM and 6:00 PM) for 14 days to induce dry eye symptoms, while the remaining ten mice (20 eyes) received no treatment and served as a baseline control. Modeling was carried out on the 15th day; and the dry eye rat models were screened based on tear film break-up time (BUT), fluorescein sodium staining of corneal, and Schirmer's test I for tear secretion. Tear film break-up time (BUT) was used to assess the tear film stability: 1 μL of 1% fluorescein sodium solution was instilled into the conjunctival sac of the mouse, and the mouse was held and blinked artificially three times; the upper and lower eyelids of the mouse were then separated; and the tear film was observed under cobalt blue filter on a slit lamp; the tear film break-up time was recorded as the number of seconds that elapse between the last blink and the appearance of the first dry spot in the tear film of the cornea; each eye was measured three times, and the average of the three measurements was recorded in seconds. […] Group A, the drug treatment group, was treated with the eye drops comprising 0.1% TAT-[…] peptide, four times a day; Group B, the solvent control group, was treated with eye drops without TAT-[…] peptide, four times a day; and Group C, the blank control group, received no treatment; on days 1, 4, and 7 after treatment, BUT, Schirmer's test I, and fluorescein sodium staining were performed; on the 7th day, the paraffin sections of the conjunctival fornix was stained by PAS stain; and the number of PAS-positive goblet cells was counted.

[3] = system: dry eye model induced by 0.2% benzalkonium chloride solution; experiment: Benzalkonium chloride dry eye model: conjunctival goblet cells (PAS staining); format: in vivo, C57BL/6 mice
Procedure: The healthy male C57BL/6 mice were kept in a controlled environment with a temperature of (25±1)° C., a relative humidity of (25±5)%, and light-dark cycles (9 AM-9 PM) with simulated dawn and dusk. Forty mice (80 eyes) were treated with 5 μL of 0.2% benzalkonium chloride solution twice a day (8:00 AM and 6:00 PM) for 14 days to induce dry eye symptoms, while the remaining ten mice (20 eyes) received no treatment and served as a baseline control. […] Group A, the drug treatment group, was treated with the eye drops comprising 0.1% TAT-[…] peptide, four times a day; Group B, the solvent control group, was treated with eye drops without TAT-[…] peptide, four times a day; and Group C, the blank control group, received no treatment; on days 1, 4, and 7 after treatment, BUT, Schirmer's test I, and fluorescein sodium staining were performed; on the 7th day, the paraffin sections of the conjunctival fornix was stained by PAS stain; and the number of PAS-positive goblet cells was counted.

[4] = system: volunteers diagnosed with dry eye syndrome; experiment: Population experiment: volunteers with dry eye syndrome; format: in vivo, human; conditions: 0.1% eye drops, 1-2 drops
Text: Currently, volunteers have been recruited to test the dry eye therapeutic effect of the 0.1% TAT-N16 peptide eye drops disclosed by the disclosure.

[5] = system: rat model of dry eye induced by corneal epithelial injury; experiment: Rat model of dry eye induced by corneal epithelial injury: corneal epithelial injury score (sodium fluorescein, slit lamp); format: in vivo, SD rats
Procedure: Grouping and administration: the eighteen rats were then randomly divided into three groups, with 6 laboratory rats in each group (male and female in equal numbers); Group 1 was the blank control group and received no treatment; Group 2 was the solvent control group and was treated with solvent eye drops that contained a solvent but no TAT-N16 peptide; Group 3 was the drug treatment group and was treated with eye drops comprising 0.1% TAT-N16 peptide; the eye drops were administered four times a day (1 drop/time) for 7 days; the corneal epithelial injury was evaluated on days 0, 4 and 7 after treatment.
Detection method and scoring criteria: corneal staining was performed by injecting 1 drop pf sodium fluorescein into the conjunctival sac using the 5 mL sterile syringe with the […] needle; the corneal epithelium was observed under the blue light from the slit lamp after 5 minutes; and the scoring criteria were shown in Table 1.

[6] = after 4 days of treatment, 0.1% eye drops four times a day
[7] = after 7 days of treatment, 0.1% eye drops four times a day
[8] = before treatment (baseline), drug treatment group, 0.1% eye drops
[9] = single cases, three (case 4: three to five) times a day

Substance: TAT-N16 peptide: cell-penetrating artificial peptide, sequence SEQ ID NO: 2, constructed by linking the peptide N16 to a TAT sequence; P55PIK inhibitor (YGRKKRRQRRRMMPYSTELIFYIEMDP)
- Tear secretion compared with the control groups ([1]; 4th and 7th day of treatment, P<0.05): significantly higher
- Schirmer's test II values (x ± s, n = 6) [1, 6]: 5.74 ± 1.59 mm
- Schirmer's test II values (x ± s, n = 6) [1, 7]: 8.58 ± 1.73 mm
- Schirmer's test II values (x ± s, n = 6) [1, 8]: 3.29 ± 1.34 mm
- Tear film break-up time (BUT) values (x ± s) ([2]; 0 d (baseline), drug treatment group, 0.1% eye drops): 3.49 ± 0.43 s
- Tear film break-up time compared with blank control group, model control group and solvent control group ([2]; 4th day of treatment): significantly longer
- Tear film break-up time (BUT) values (x ± s) ([2]; 4 d, 0.1% eye drops four times a day): 4.82 ± 0.57 s
- Tear film break-up time (BUT) values (x ± s) ([2]; 7 d, 0.1% eye drops four times a day): 5.99 ± 0.55 s
- Tear film break-up time compared with blank control group, model control group and solvent control group ([2]; 7 days of continuous treatment, P=0.007): significantly longer
- Density of conjunctival goblet cells compared with blank control group and solvent control group ([3]; 7 days of continuous treatment, P<0.01, FIG. 4): significantly higher
- Number of conjunctival goblet cells (PAS-stained paraffin sections of the conjunctival fornix) ([3]; after treatment with the eye drops): increased significantly
- Dry eye symptoms within three days of use ([4]; single case, three times a day): significantly improved
- Conjunctival congestion after a week of use [4, 9]: cleared up; also recorded: disappeared
- Dry eye symptoms after a week of use [4, 9]: essentially disappeared; also recorded: mostly disappeared; also recorded: disappeared completely; also recorded: largely eliminated
- Dry eye symptoms on the first day of use ([4]; single cases, three times a day): improved significantly; also recorded: significantly relief
- Corneal epithelial injury score compared with blank control group or solvent control group ([5]; 4 days of treatment, P>0.05): no statistically significant difference
- Corneal epithelial injury score compared with blank control group or solvent control group ([5]; 7 days of treatment, P<0.05): significantly lower
- Corneal epithelial injury scores (x ± s, n = 6) [5, 6]: 3.08 ± 1.43
- Corneal epithelial injury scores (x ± s, n = 6) [5, 7]: 0.84 ± 0.96
- Corneal epithelial injury scores (x ± s, n = 6) [5, 8]: 4.81 ± 1.61
